Where two headings read alike, the source gives them in different places.
Assays:
[1] = tested on: platelet aggregation induced by ADP; test: Test of inhibitory effect of compounds on platelet aggregation in rats (ex vivo, ADP-induced, after intragastric administration); parameters: species or system SD rats; conditions: for Inhibition rate (%): platelet aggregation, control = 100%; for Inhibition rate (%) / Aggregation rate (%): rats; for Aggregation rate (%): 2 h after administration, ADP 20 uM
Procedure: Test of Inhibitory Effect of Compounds on Platelet Aggregation in Rats Healthy male SD rats were selected and randomly divided into solvent control group, positive drug control group and test compound group. Intragastric administration was carried out, with the administration volume being 10 ml/kg˜bw. […] The platelet count was adjusted to 5×10^8 cells/ml with PPP.

beagle dogs = test: Safety evaluation in single dosing; assay type: in vivo; conditions: intragastric single dose of 2 g/kg
Procedure: Safety Evaluation of Compounds I-1 and I-2 in Single Dosing: The test consisted of a physiological control group, a solvent control group, and two administration groups, with 4 animals in each group, half of which were male and the other half of which were female. The animals were intragastrically administered with the test compounds at a single dose of 2 g/kg. The solvent control group was administered with an equal volume of the blank solvent. Animals were daily observed for various conditions during the test. ECG examinations were performed before administration, 1 h after administration, and 7 and 14 days after administration. Hematological and blood biochemical tests were performed before administration and 1, 7 and 12 days after administration.

[2] = 1 μM
Procedure: Plasma samples (double sample) containing 1 μM of the compounds of the present invention, clopidogrel hydrogen sulfate (LBGL), 2-oxo product (2-Oxo) were prepared from human blank plasma, and incubated at 37° C. 50 μL of the above incubated plasma samples were taken at different time points, and 100 μL of precipitant (acetonitrile:methanol=7:3) and 50 μL of internal standard were added. The mixture was vortexed for 1 min and centrifuged for 10 min. 100 μL of the supernatant was taken into an inner inserted tube, centrifuged for 5 min, and injected for LC-MS/MS analysis.
Preparation of blank control sample (PPT-0): 100 μL of frozen human blank plasma was taken, to which 195 μL of acetonitrile and 100 μL of internal standard were added, followed by 5 μL of the compound of the present invention, clopidogrel or 2-oxo product (20 μM). The mixture was vortexed for 1 min and centrifuged for 10 min. 100 μL of the supernatant was taken into an inner inserted tube, centrifuged for 5 min, and injected for LC-MS/MS analysis.

[3] = Stability of the compounds under high temperature, high humidity and light (influence factors, HPLC); assay type: physicochemical
Procedure: Study on the Stability of the Compounds:
The stability of the compound is investigated under the conditions of high temperature, high humidity and light. The testing conditions for high performance liquid chromatography (HPLC) are as follows:
Instrument: high performance liquid chromatography;
Column: Inertsil C8-3, 150 mm×4.6 mm, 5 μm;
Mobile phase A: acetonitrile; mobile phase B: 5 mM ammonium dihydrogen phosphate;
Detection wavelength: 220 nm;
Column temperature: 35° C.;
Sample chamber temperature: 25° C.;
Column: Agilent Poroshell 120 EC-C18, 100 mm×4.6 mm, 2.7 μm;
Column temperature: 30° C.;
Other conditions are the same as that in Method 1.
Samples relating to Compound I-2 were tested using Method 2 and other samples were tested using Method 1. The test results of the influence factors are shown in Table 14, and the test results of the light-avoidance stability test are shown in Table 15.

[4] = 5 days, High temperature 60° C.
[5] = 10 days, High temperature 60° C.
[6] = 30 days, High temperature 60° C.

## C/C=C/C(=O)Oc1cc2c(s1)CCN([C@H](C(=O)OC)c1ccccc1Cl)C2 [Compound I-1, Methyl (S,E)-2-(2-chlorophenyl)-2-(2-(2-butenoyloxy)-6,7-dihydrothieno[3,2-c]pyridin-5(4H)-yl)-acetate]
[1]; Rattus norvegicus, Platelet, po
  ED50: 1 mg/kg
[1]; intragastric 0.5 mg/kg
  Inhibition rate (%): 22.4%
  Aggregation rate (%): 46.6 ± 8.1%
[1]; intragastric 1 mg/kg
  Inhibition rate (%): 50.2%
  Aggregation rate (%): 29.9 ± 8.7 %
[1]; intragastric 2 mg/kg
  Inhibition rate (%): 77.0%
  Aggregation rate (%): 13.8 ± 11.7 %
Beagle dogs
  ECG examinations, hematological tests and serum biochemical tests: no obvious abnormalities
Beagle dogs; administration and observation period
  Activities, mental condition and diet: normal activities, good mental condition, and normal diet
[2]; 0 min
  2-Oxo metabolite concentration in human plasma: 0.0412 µM
  2-Oxo metabolite in human plasma, %: 4.34%
  Concentration of incubated compound in human plasma: 950 nM
  Incubated compound in human plasma, %: 100%
[2]
  Generation of 2-oxo (2-Oxo) product in human plasma: rapidly generate 2-oxo products
[2]; 5 min
  2-Oxo metabolite concentration in human plasma: 0.0807 µM
  2-Oxo metabolite in human plasma, %: 8.49%
  Concentration of incubated compound in human plasma: 872 nM
  Incubated compound in human plasma, %: 91.7%
[2]; 10 min
  2-Oxo metabolite concentration in human plasma: 0.143 µM
  2-Oxo metabolite in human plasma, %: 15.1%
  Concentration of incubated compound in human plasma: 782 nM
  Incubated compound in human plasma, %: 82.3%
[2]; 20 min
  2-Oxo metabolite concentration in human plasma: 0.195 µM
  2-Oxo metabolite in human plasma, %: 20.5%
  Concentration of incubated compound in human plasma: 575 nM
  Incubated compound in human plasma, %: 60.5%
[2]; 30 min
  2-Oxo metabolite concentration in human plasma: 0.198 µM
  2-Oxo metabolite in human plasma, %: 20.8%
  Concentration of incubated compound in human plasma: 425 nM
  Incubated compound in human plasma, %: 44.7%
[2]; 45 min
  2-Oxo metabolite concentration in human plasma: 0.167 µM
  2-Oxo metabolite in human plasma, %: 17.5%
  Concentration of incubated compound in human plasma: 266 nM
  Incubated compound in human plasma, %: 28.0%
[2]; 60 min
  2-Oxo metabolite concentration in human plasma: 0.130 µM
  2-Oxo metabolite in human plasma, %: 13.6%
  Concentration of incubated compound in human plasma: 174 nM
  Incubated compound in human plasma, %: 18.3%
[2]; 90 min
  2-Oxo metabolite concentration in human plasma: 0.0535 µM
  2-Oxo metabolite in human plasma, %: 5.63%
  Concentration of incubated compound in human plasma: 52.2 nM
  Incubated compound in human plasma, %: 5.49%
[2]; 120 min
  2-Oxo metabolite concentration in human plasma: 0.0224 µM
  2-Oxo metabolite in human plasma, %: 2.35%
  Concentration of incubated compound in human plasma: 16.2 nM
  Incubated compound in human plasma, %: 1.70%
[2]; 150 min
  2-Oxo metabolite concentration in human plasma: 0.00857 µM
  2-Oxo metabolite in human plasma, %: 0.902%
  Concentration of incubated compound in human plasma: 5.31 nM
  Incubated compound in human plasma, %: 0.558%
[2]; 180 min
  2-Oxo metabolite concentration in human plasma: 0.00397 µM
  2-Oxo metabolite in human plasma, %: 0.418%
  Concentration of incubated compound in human plasma: 2.19 nM
  Incubated compound in human plasma, %: 0.231%
[2]; 240 min
  2-Oxo metabolite concentration in human plasma: 0 µM
  2-Oxo metabolite in human plasma, %: 0%
  Concentration of incubated compound in human plasma: 0 nM
  Incubated compound in human plasma, %: 0%
[2]; 300 min
  2-Oxo metabolite concentration in human plasma: 0 µM
  2-Oxo metabolite in human plasma, %: 0%
  Concentration of incubated compound in human plasma: 0 nM
  Incubated compound in human plasma, %: 0%
[2]; 360 min
  2-Oxo metabolite concentration in human plasma: 0 µM
  2-Oxo metabolite in human plasma, %: 0%
  Concentration of incubated compound in human plasma: 0 nM
  Incubated compound in human plasma, %: 0%
[3]; 0 day, 0point
  Chromatographic purity %: 99.612%
  Individual maximum impurity %: 0.236%
[3]; 5 days, High humidity RH92.5%
  Chromatographic purity %: 99.583%
  Individual maximum impurity %: 0.235%
[3]; [4]
  Chromatographic purity %: 99.595%
  Individual maximum impurity %: 0.234%
[3]; 5 days, Light 4500 ± 500 LX
  Chromatographic purity %: 99.539%
  Individual maximum impurity %: 0.287%
[3]; 10 days, High humidity RH92.5%
  Chromatographic purity %: 99.578%
  Individual maximum impurity %: 0.234%
[3]; [5]
  Chromatographic purity %: 99.596%
  Individual maximum impurity %: 0.232%
[3]; 10 days, Light 4500 ± 500 LX
  Chromatographic purity %: 99.502%
  Individual maximum impurity %: 0.313%
[3]; 30 days, High humidity RH92.5%
  Chromatographic purity %: 99.544%
  Individual maximum impurity %: 0.235%
[3]; [6]
  Chromatographic purity %: 99.570%
  Individual maximum impurity %: 0.237%
[3]; 30 days, Light 4500 ± 500 LX
  Chromatographic purity %: 98.868%
  Individual maximum impurity %: 0.698%

From US11466025B2, “Thienopyridine derivatives containing unsaturated aliphatic olefinic bond, preparation method and use thereof” (Tianjin Institute of Pharmaceutical Research Co., Ltd., priority 2017, dated 2022)
